Experimental data as given in US20260242391A1 (priority 2023, published 2026).

Legend:
HL-60 = HL-60 differentiation potency; assay type: cell-based; settings: Homo sapiens
in vitro = settings: human

Row | EC50 (HL-60) | IC50 (in vitro) | SMILES | IC50 (in vitro; HL-60 cells)
1 | 112 nM | 1270 nM | C[C@H]1[C@@H](Oc2ccc(C(=O)N[C@H](C(=O)O)c3ccccc3)cc2)O[C@@H]2O[C@@]3(C)CC[C@H]4[C@H](C)CC[C@@H]1[C@@]24OO3 [Compound 234, (S)-2-phenyl-2-(4-(((3R,5aS,6R,8aS, 9R,10S,12R, 12aR)-3,6,9-trimethyldeca-hydro-12H-3,12-epoxy[1,2]dioxepino[4,3-i]isochromen-10-yl)oxy)benzamido) acetic acid] | 
2 | 25.9 nM | 11700 nM | C[C@H]1[C@@H](Oc2ccc(CC(=O)N[C@H]3CC[C@H](C(=O)O)C3)cc2)O[C@@H]2O[C@@]3(C)CC[C@H]4[C@H](C)CC[C@@H]1[C@@]24OO3 [Compound 307, (1S,3S)-3-(2-(4-(((3R,5aS,6R,8aS, 9R,10S,12R, 12aR)-3,6,9-trimethyldeca-hydro-12H-3,12-epoxy[1,2]dioxepino[4,3-i]isochromen-10-yl)oxy)phenyl)acetamido) cyclopentane-1-carboxylic acid] | 
3 | 50.2 nM | > 20000 nM | C[C@H]1[C@@H](OC[C@H]2CC[C@@H](C(=O)NC(C(=O)O)C3CCC3)CC2)O[C@@H]2O[C@@]3(C)CC[C@H]4[C@H](C)CC[C@@H]1[C@@]24OO3 (stereo partly drawn) [Compound 185, (S)-2-cyclobutyl-2-((1R,4R)-4-((((3R,5aS,6R,8aS, 9R,10S,12R, 12aR)-3,6,9-trimethyldeca-hydro-12H-3,12-epoxy[1,2]dioxepino[4,3-i]isochromen-10-yl)oxy)methyl)cyclohexane-1-carboxamido) acetic acid] | 
4 | 17700 nM | > 20000 nM | C[C@H]1[C@@H](Oc2ccc([C@H](N)C(=O)O)cc2)O[C@@H]2O[C@@]3(C)CC[C@H]4[C@H](C)CC[C@@H]1[C@@]24OO3 [Compound 194, (S)-2-amino-2-(4-(((3R,5aS,6R,8aS, 9R,10S,12R, 12aR)-3,6,9-trimethyldeca-hydro-12H-3,12-epoxy[1,2]dioxepino[4,3-i]isochromen-10-yl)oxy)phenyl) acetic acid] | 
5 | 159 nM | 1430 nM | C[C@H]1[C@@H](Oc2ccc(Cn3cc(C(=O)O)nn3)c(Br)c2)O[C@@H]2O[C@@]3(C)CC[C@H]4[C@H](C)CC[C@@H]1[C@@]24OO3 [Compound 264, 1-(2-bromo-4-(((3R,5aS,6R,8aS,9R,10S,12R, 12aR)-3,6,9-trimethyldeca-hydro-12H-3,12-epoxy[1,2]dioxepino[4,3-i]isochromen-10-yl)oxy)benzyl)-1H-1,2,3-triazole-4-carboxylic acid] | 
6 | 29.9 nM | 620 nM | C[C@H]1[C@@H](Oc2ccc(C(=O)N[C@H]3CC[C@@H](C(=O)O)C3)cc2Cl)O[C@@H]2O[C@@]3(C)CC[C@H]4[C@H](C)CC[C@@H]1[C@@]24OO3 [Compound 232, (1R,3S)-3-(3-chloro-4-(((3R,5aS,6R,8aS, 9R,10S,12R, 12aR)-3,6,9-trimethyldeca-hydro-12H-3,12-epoxy[1,2]dioxepino[4,3-i]isochromen-10-yl)oxy)benzamido)cyclo-pentane-1-carboxylic acid] | 
7 | 51.2 nM | 12000 nM | C[C@H]1[C@@H](OC2CCc3cc(C(=O)O)ccc32)O[C@@H]2O[C@@]3(C)CC[C@H]4[C@H](C)CC[C@@H]1[C@@]24OO3 (stereo partly drawn) [Compound 226, 1-(((3R,5aS,6R,8aS, 9R,10S,12R, 12aR)-3,6,9-trimethyldeca-hydro-12H-3,12-epoxy[1,2]dioxepino[4,3-i]isochromen-10-yl)oxy)-2,3-dihydro-1H-indene-5-carboxylic acid] | 
8 | 246 nM | 3220 nM | Cc1cc(C(=O)O)cc(Cl)c1CO[C@H]1O[C@@H]2O[C@@]3(C)CC[C@H]4[C@H](C)CC[C@@H]([C@H]1C)[C@@]24OO3 [Compound 280, 3-chloro-5-methyl-4-((((3R,5aS,6R,8aS, 9R,10S,12R, 12aR)-3,6,9-trimethyldeca-hydro-12H-3,12-epoxy[1,2]dioxepino[4,3-i]isochromen-10-yl)oxy)methyl) benzoic acid] | 
9 | 70.8 nM | 1880 nM | C[C@H]1[C@@H](Oc2cc(F)cc(OCC(=O)O)c2)O[C@@H]2O[C@@]3(C)CC[C@H]4[C@H](C)CC[C@@H]1[C@@]24OO3 [Compound 220, 2-(3-fluoro-5-(((3R,5aS,6R,8aS, 9R,10S,12R, 12aR)-3,6,9-trimethyldeca-hydro-12H-3,12-epoxy[1,2]dioxepino[4,3-i]isochromen-10-yl)oxy)phenoxy) acetic acid] | 
10 | 60.8 nM | 1000 nM | C[C@H]1[C@@H](OC[C@H]2CC[C@@H](C(=O)Nc3ccc(C(=O)O)cc3)CC2)O[C@@H]2O[C@@]3(C)CC[C@H]4[C@H](C)CC[C@@H]1[C@@]24OO3 [Compound 287, 4-((1R,4s)-4-((((3R,5aS,6R,8aS, 9R,10S,12R, 12aR)-3,6,9-trimethyldeca-hydro-12H-3,12-epoxy[1,2]dioxepino[4,3-i]isochromen-10-yl)oxy)methyl)cyclohexane-1-carboxamido) benzoic acid] | 
11 | 105 nM | 9270 nM | C[C@H]1[C@@H](Oc2ccc(C(=O)N(C)[C@H]3CC[C@@H](C(=O)O)C3)cc2)O[C@@H]2O[C@@]3(C)CC[C@H]4[C@H](C)CC[C@@H]1[C@@]24OO3 [Compound 272, (1R,3S)-3-(N-methyl-4-(((3R,5aS,6R,8aS, 9R,10S,12R, 12aR)-3,6,9-trimethyldeca-hydro-12H-3,12-epoxy[1,2]dioxepino[4,3-i]isochromen-10-yl)oxy)benzamido) cyclopentane-1-carboxylic acid] | 
12 | 101 nM | 690 nM | C[C@H]1[C@@H](Oc2ccc(OCC(=O)O)cc2Cl)O[C@@H]2O[C@@]3(C)CC[C@H]4[C@H](C)CC[C@@H]1[C@@]24OO3 [Compound 218, 2-(3-chloro-4-(((3R,5aS,6R,8aS, 9R,10S,12R, 12aR)-3,6,9-trimethyldeca-hydro-12H-3,12-epoxy[1,2]dioxepino[4,3-i]isochromen-10-yl)oxy)phenoxy) acetic acid] | 
13 | 204 nM | > 20000 nM | C[C@H]1[C@@H](O[C@H]2CC[C@@H](C(=O)N[C@H](C(=O)O)C(C)(C)C)CC2)O[C@@H]2O[C@@]3(C)CC[C@H]4[C@H](C)CC[C@@H]1[C@@]24OO3 [Compound 229, (S)-3,3-dimethyl-2-((1R,4R)-4-(((3R,5aS,6R,8aS, 9R,10S,12R, 12aR)-3,6,9-trimethyldeca-hydro-12H-3,12-epoxy[1,2]dioxepino[4,3-i]isochromen-10-yl)oxy)cyclohexane-1-carboxamido) butanoic acid] | 
14 | 4470 nM | 15400 nM | C[C@H]1[C@@H](OC[C@]2(F)CC[C@@H](C(=O)O)CC2)O[C@@H]2O[C@@]3(C)CC[C@H]4[C@H](C)CC[C@@H]1[C@@]24OO3 [Compound 200, (1R,4s)-4-fluoro-4-((((3R,5aS,6R,8aS, 9R,10S,12R, 12aR)-3,6,9-trimethyldeca-hydro-12H-3,12-epoxy[1,2]dioxepino[4,3-i]isochromen-10-yl)oxy)methyl) cyclohexane-1-carboxylic acid] | 
15 | 47.9 nM | 4000 nM | C[C@H]1[C@@H](Oc2ccc(C(=O)N[C@H]3CCC(=O)NC3=O)cc2)O[C@@H]2O[C@@]3(C)CC[C@H]4[C@H](C)CC[C@@H]1[C@@]24OO3 [Compound 198, N-((S)-2,6-dioxopiperidin-3-yl)-4-(((3R,5aS,6R,8aS, 9R,10S,12R, 12aR)-3,6,9-trimethyldeca-hydro-12H-3,12-epoxy[1,2]dioxepino[4,3-i]isochromen-10-yl)oxy)benzamide] | 
16 | 412 nM | > 20000 nM | CO[C@H](C)[C@H](NC(=O)c1ccc(O[C@H]2O[C@@H]3O[C@@]4(C)CC[C@H]5[C@H](C)CC[C@@H]([C@H]2C)[C@@]35OO4)cc1)C(=O)O [Compound 248, O-methyl-N-(4-(((3R,5aS,6R,8aS, 9R,10S,12R, 12aR)-3,6,9-trimethyldeca-hydro-12H-3,12-epoxy[1,2]dioxepino[4,3-i]isochromen-10-yl)oxy)benzoyl)-L-threonine] | 
17 | 31.7 nM | 17700 nM | C[C@H]1[C@@H](OC[C@H]2CC[C@@H](C(=O)NCC3(C(=O)O)CCC3)CC2)O[C@@H]2O[C@@]3(C)CC[C@H]4[C@H](C)CC[C@@H]1[C@@]24OO3 [Compound 297, 1-(((1R,4s)-4-((((3R,5aS,6R,8aS, 9R,10S,12R, 12aR)-3,6,9-trimethyldeca-hydro-12H-3,12-epoxy[1,2]dioxepino[4,3-i]isochromen-10-yl)oxy)methyl)cyclohexane-1-carboxamido)methyl) cyclobutane-1-carboxylic acid] | 
18 | 26.8 nM | 4860 nM | C[C@H]1[C@@H](Oc2ccc([C@@H](C)C(=O)O)cc2F)O[C@@H]2O[C@@]3(C)CC[C@H]4[C@H](C)CC[C@@H]1[C@@]24OO3 [Compound 279, (R)-2-(3-fluoro-4-(((3R,5aS,6R,8aS, 9R,10S,12R, 12aR)-3,6,9-trimethyldeca-hydro-12H-3,12-epoxy[1,2]dioxepino[4,3-i]isochromen-10-yl)oxy)phenyl) propanoic acid] | 
19 | > 20000 nM | > 20000 nM | C[C@H]1[C@@H](OCc2ccc(C(=O)N3C[C@@H](F)C[C@H]3C(=O)O)cc2)O[C@@H]2O[C@@]3(C)CC[C@H]4[C@H](C)CC[C@@H]1[C@@]24OO3 [Compound 276, (2S,4S)-4-fluoro-1-(4-((((3R,5aS,6R,8aS, 9R,10S,12R, 12aR)-3,6,9-trimethyldeca-hydro-12H-3,12-epoxy[1,2]dioxepino[4,3-i]isochromen-10-yl)oxy)methyl)benzoyl) pyrrolidine-2-carboxylic acid] | 
20 | 134 nM | 19000 nM | C[C@H]1[C@@H](OCC2(F)CCCC(C(=O)O)C2)O[C@@H]2O[C@@]3(C)CC[C@H]4[C@H](C)CC[C@@H]1[C@@]24OO3 (stereo partly drawn) [Compound 222, 3-fluoro-3-((((3R,5aS,6R,8aS, 9R,10S,12R, 12aR)-3,6,9-trimethyldeca-hydro-12H-3,12-epoxy[1,2]dioxepino[4,3-i]isochromen-10-yl)oxy)methyl) cyclohexane-1-carboxylic acid] | 

Row | SMILES | EC50 (HL-60) | IC50 (in vitro) | IC50 (in vitro; HL-60 cells)
21 | C[C@H]1[C@@H](O[C@H]2CC[C@@H](C(=O)N[C@@H](CC(F)(F)F)C(=O)O)CC2)O[C@@H]2O[C@@]3(C)CC[C@H]4[C@H](C)CC[C@@H]1[C@@]24OO3 [Compound 237, (S)-4,4,4-trifluoro-2-((1R,4R)-4-(((3R,5aS,6R,8aS, 9R,10S,12R, 12aR)-3,6,9-trimethyldeca-hydro-12H-3,12-epoxy[1,2]dioxepino[4,3-i]isochromen-10-yl)oxy)cyclo-hexane-1-carboxamido) butanoic acid] | 7260 nM |  | > 20000 nM
